Reference: PMC7284125, “Identification of annotated bioactive molecules that impair motility of the blood fluke Schistosoma mansoni” (International Journal for Parasitology: Drugs and Drug …, 2020)
Read-outs that look alike come from different tables or passages of the source. One block for each compound: values may come before it. Residues, ends and D or L forms follow the SMILES beside them. *: point of attachment. Cbz = O=C(OCc1ccccc1)*

Experiments:
[1] = system: S. mansoni adult worms; experiment: Motility assay on adult parasites (pixel displacement, relative to DMSO control); format: cell-based, Schistosoma mansoni; settings: 10 μM; for motility phenotype in words: adults, long-term after washout; for Fractional motility: secondary screen
In short: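 Unpaired adult worms from mice 6 weeks post-infection kept in OPTI-MEM with 5% dialyzed FBS and exposed to compounds at 1 and 10 μM for 24 h. Motility filmed 1 min at 10 frames/s, quantified by pixel displacement versus DMSO-treated worms; recovery followed up to five days after washout.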

[2] = system: Glo HEK293 cells; experiment: Cellular viability, CellTiter Glo 2.0; format: cell-based, human; settings: 10 μM, 3 h
Experimental: Adherent HEK293 cells were seeded at a density of 5 x 10^4 cells/well (96-well plate) in Opti-MEM without FBS or antibiotics and incubated overnight at 37 °C and 5% CO2 prior to the assay. In place of the media, 100 μL HBSS supplemented with 0.1% bovine serum albumin (BSA), 500 μM 3-isobutyl-1-methylxanthine (IBMX, Sigma Aldrich), 20 mM HEPES (pH 7.4) and 1 mg/mL D-luciferin (Goldbio) was added to each well. After a 2 h incubation period at room temperature, luminescence background was recorded, and compounds and control ligands were added at 10X concentration. Immediately after compound addition, luminescence was read over a 45 min period to detect compounds stimulating cAMP release through receptor activation. […] For each assay, luminescence responses were recorded in triplicate and repeated with four independant cell batches. Compounds were also added to naïve Glo HEK293 cells (no receptor) and the robustness of the assay was calculated as: Z^'=1−3×(SDmax+SDmin)/Meanmax−Meanmin with max and min referring respectively to cells expressing GPCRs and Glo (no receptor) cells. Cellular viability was assessed using a CellTiter Glo 2.0 kit (Promega). Glo cells were exposed to 10 μM of each hit compound for 3 h in Opti-MEM at 37 °C, 5% CO2. […] 2X cell lysis media was then added and end-point luminescence recorded after a 10 min stabilization time.

[3] = system: naïve Glo HEK293 cells (no receptor); experiment: cAMP luminescence (GloSensor) assay on naïve Glo HEK293 cells (no receptor); format: cell-based, human; settings: 20 μM forskolin
Experimental: The SmGPR2 sequence previously identified ([El-Shehabi and Ribeiro, 2010]) was codon optimized for mammalian expression and subcloned in the vector pCI-neo (Addgene, USA) using the XbaI and NotI restriction enzymes. A FLAG fusion tag ([…]) was introduced at the N-terminal end of the receptor sequence. Stable transfection of HEK293 cells (ATCC; CRL-1573) was performed using the X-tremeGENE 9 DNA transfection reagent (Sigma Aldrich). Cells were then cultured at 37 °C, 5% CO2 in Opti-MEM supplemented with 5% FBS and maintained in 400 μg/mL G418 (Sigma Aldrich) for selection of transformants. […] All cell lines expressing S. mansoni GPCRs were then transfected with the GloSensor encoding plasmid p22F (Promega) and media was supplemented with 100 μg/mL hygromycin for stable expression (ThermoFisher).
Adherent HEK293 cells were seeded at a density of 5 x 10^4 cells/well (96-well plate) in Opti-MEM without FBS or antibiotics and incubated overnight at 37 °C and 5% CO2 prior to the assay. In place of the media, 100 μL HBSS supplemented with 0.1% bovine serum albumin (BSA), 500 μM 3-isobutyl-1-methylxanthine (IBMX, Sigma Aldrich), 20 mM HEPES (pH 7.4) and 1 mg/mL D-luciferin (Goldbio) was added to each well. After a 2 h incubation period at room temperature, luminescence background was recorded, and compounds and control ligands were added at 10X concentration. Immediately after compound addition, luminescence was read over a 45 min period to detect compounds stimulating cAMP release through receptor activation. […] For each assay, luminescence responses were recorded in triplicate and repeated with four independant cell batches. Compounds were also added to naïve Glo HEK293 cells (no receptor) and the robustness of the assay was calculated as: Z^'=1−3×(SDmax+SDmin)/Meanmax−Meanmin with max and min referring respectively to cells expressing GPCRs and Glo (no receptor) cells. Cellular viability was assessed using a CellTiter Glo 2.0 kit (Promega). Glo cells were exposed to 10 μM of each hit compound for 3 h in Opti-MEM at 37 °C, 5% CO2. An equimolar concentration of tamoxifen (Sigma Aldrich) was used as a positive control. 2X cell lysis media was then added and end-point luminescence recorded after a 10 min stabilization time.

[4] = system: S. mansoni schistosomulae; experiment: Motility assay on schistosomulae (pixel displacement, relative to DMSO control); format: cell-based, Schistosoma mansoni; settings: for activity at 1 µM: Schistosoma mansoni, read-out: Fractional motility
In short: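 Mechanically transformed S. mansoni schistosomulae (200/well) in Opti-MEM with 5% dialyzed FBS were exposed to compounds at 1 and 10 μM for 24 h at 37 °C, 5% CO2. Motility filmed at 10 frames/s for 1 min and quantified by pixel displacement relative to DMSO-treated controls.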

[5] = target: Sm5HTR (Schistosoma mansoni, UniProt G4V5G4); experiment: cAMP luminescence (GloSensor) assay, HEK293 cells expressing Sm5HTR; format: cell-based, S. mansoni; settings: compound incubation followed by 50 μM 5-HT
[6] = system: S. mansoni schistosomulae; experiment: Phenotypic primary screen assay on schistosomulae (phenotype; viability by methylene blue dye exclusion); format: cell-based, Schistosoma mansoni; settings: for Phenotype: estimated 5 days post compound exposure
In short: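 Parasites lacking contraction/relaxation cycles and showing dark internal granulations counted as dead. Movement and body shape were compared with DMSO-treated controls under a stereo microscope at 24 h and at five days of exposure. Larvae came from infected snails shed under light for 2 h at 32 °C.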

[7] = system: S. mansoni schistosomulae; experiment: as above; format: cell-based; settings: Schistosoma mansoni; three-day-old schistosomulae, 10 μM, 24 h; calculated 5 days post compound exposure; read-out: Viability (%)
[8] = system: adult schistosomes; parameters: method as in Neves et al., 2016; settings: transient hyperactivity, ref Neves et al., 2016, cited from earlier work
[9] = system: schistosomes; parameters: method as in Bibo-Verdugo et al., 2019; settings: in vitro; ref Bibo-Verdugo et al., 2019; cited from earlier work
[10] = system: schistosomes; parameters: method as in Marcellino et al., 2012; settings: ref Marcellino et al., 2012; cited from earlier work
[11] = system: proteasome; parameters: method as in Bibo-Verdugo et al., 2019; settings: in vitro; ref Bibo-Verdugo et al., 2019; cited from earlier work
[12] = system: schistosomulae; parameters: method as in Panic et al., 2015b; settings: 72 h incubation at 10 μM; ref Panic et al., 2015b; cited from earlier work
[13] = target: SmGPR2 (Schistosoma mansoni, UniProt G4VIY8); experiment: cell-based
Experimental: The SmGPR2 sequence previously identified ([El-Shehabi and Ribeiro, 2010]) was codon optimized for mammalian expression and subcloned in the vector pCI-neo (Addgene, USA) using the XbaI and NotI restriction enzymes. A FLAG fusion tag ([…]) was introduced at the N-terminal end of the receptor sequence. Stable transfection of HEK293 cells (ATCC; CRL-1573) was performed using the X-tremeGENE 9 DNA transfection reagent (Sigma Aldrich). Cells were then cultured at 37 °C, 5% CO2 in Opti-MEM supplemented with 5% FBS and maintained in 400 μg/mL G418 (Sigma Aldrich) for selection of transformants. […]
Adherent HEK293 cells were seeded at a density of 5 x 10^4 cells/well (96-well plate) in Opti-MEM without FBS or antibiotics and incubated overnight at 37 °C and 5% CO2 prior to the assay. […] After a 2 h incubation period at room temperature, luminescence background was recorded, and compounds and control ligands were added at 10X concentration. Immediately after compound addition, luminescence was read over a 45 min period to detect compounds stimulating cAMP release through receptor activation. […] For each assay, luminescence responses were recorded in triplicate and repeated with four independant cell batches. […] Cellular viability was assessed using a CellTiter Glo 2.0 kit (Promega). […] 2X cell lysis media was then added and end-point luminescence recorded after a 10 min stabilization time.

[14] = system: schistosomes; parameters: method as in Guerra-Sa et al., 2005; settings: treated mice; ref Guerra-Sa et al., 2005; cited from earlier work
[15] = system: schistosomulae; parameters: method as in El-Sakkary et al., 2018; settings: 20 min exposure, 10 μM; ref El-Sakkary et al., 2018; cited from earlier work
[16] = schistosomulae, 1h exposure, read at D1, 10 µM
[17] = schistosomulae, 1h exposure, read at D5, 10 µM
[18] = schistosomulae, 3h exposure, read at D1, 10 µM
[19] = schistosomulae, 3h exposure, read at D5, 10 µM
[20] = schistosomulae, 6h exposure, read at D1, 10 µM
[21] = schistosomulae, secondary screen, 24h exposure, read at D1, 1 µM
[22] = schistosomulae, secondary screen, 24h exposure, read at D1, 10 µM
[23] = schistosomulae, secondary screen, 24h exposure, read at D5, 10 µM
[24] = three-day-old schistosomulae, 10 μM, 24 h
[25] = 120 h, schistosomulae, secondary screen, 24h exposure, read at D5, 1 µM

Chain of Sm5HTR (G4V5G4 entry or part of it): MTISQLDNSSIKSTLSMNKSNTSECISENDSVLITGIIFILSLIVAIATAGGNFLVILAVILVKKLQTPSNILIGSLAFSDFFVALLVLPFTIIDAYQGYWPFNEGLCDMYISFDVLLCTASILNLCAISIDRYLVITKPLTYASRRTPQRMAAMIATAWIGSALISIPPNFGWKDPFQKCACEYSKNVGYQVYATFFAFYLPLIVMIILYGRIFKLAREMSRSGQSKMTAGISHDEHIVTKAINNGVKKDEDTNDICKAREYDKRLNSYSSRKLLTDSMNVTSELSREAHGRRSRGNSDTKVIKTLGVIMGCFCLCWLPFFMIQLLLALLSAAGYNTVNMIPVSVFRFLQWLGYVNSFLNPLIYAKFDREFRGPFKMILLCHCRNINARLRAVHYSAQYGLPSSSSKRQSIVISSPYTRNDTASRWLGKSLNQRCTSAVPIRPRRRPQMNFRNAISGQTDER
Chain of SmGPR2 (G4VIY8 entry or part of it): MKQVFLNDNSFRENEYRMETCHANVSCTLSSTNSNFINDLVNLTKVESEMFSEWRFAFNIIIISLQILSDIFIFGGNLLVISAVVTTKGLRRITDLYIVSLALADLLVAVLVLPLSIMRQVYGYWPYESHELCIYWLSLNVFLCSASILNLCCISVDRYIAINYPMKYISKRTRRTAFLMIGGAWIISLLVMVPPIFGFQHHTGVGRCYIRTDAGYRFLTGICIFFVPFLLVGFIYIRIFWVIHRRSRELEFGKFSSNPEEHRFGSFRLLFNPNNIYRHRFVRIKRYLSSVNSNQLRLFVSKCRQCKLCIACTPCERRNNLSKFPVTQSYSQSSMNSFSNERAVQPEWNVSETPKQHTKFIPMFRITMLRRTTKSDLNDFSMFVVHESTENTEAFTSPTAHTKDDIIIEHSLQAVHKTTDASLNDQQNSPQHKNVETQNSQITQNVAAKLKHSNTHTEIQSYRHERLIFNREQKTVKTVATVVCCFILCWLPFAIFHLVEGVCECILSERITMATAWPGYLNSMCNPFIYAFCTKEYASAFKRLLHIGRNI

SMILES: Cc1ccc(S(=O)(=O)c2ccc([N+](=O)[O-])o2)cc1 [NSC697923]
motility phenotype in words [1]: Significant hypomotility | Fractional motility ([1]; D1, Female adult worms): 0.25 | Fractional motility ([1]; D1, Male adult worms): 0.30 | Fractional motility ([1]; D5, Female adult worms): -0.95 | Fractional motility ([1]; D5, Male adult worms): -0.78 | reduction of ATP released by cells [2]: 48.1 ± 5.7% | effect on luminescence evoked by forskolin [3]: significant decrease in luminescence | Fractional motility [4, 16]: -0.93 | Fractional motility [4, 17]: -1.00 | Fractional motility [4, 18]: -1.00 | Fractional motility [4, 19]: -0.99 | Fractional motility [4, 20]: -0.93 | Fractional motility ([4]; schistosomulae, 6h exposure, read at D5, 10 µM): -0.99 | Fractional motility [4, 21]: -0.18 | Fractional motility [4, 22]: 3.05 | Fractional motility ([4]; schistosomulae, secondary screen, 24h exposure, read at D5, 1 µM): -0.90 | Fractional motility [4, 23]: -1.00 | inhibition of Sm5HTR 5-HT-evoked signals [5]: ≥ 50% | Viability (%) ([6]; three-day-old schistosomulae, 10 μM, 24 h, calculated 5 days post compound exposure): 0% | Phenotype [6, 24]: dark, granulated

motility phenotype in words ([4]; schistosomulae, after 24 h exposure): high levels of hypermotility
SMILES: Fc1ccc([C@@H]2CCNC[C@H]2COc2ccc3c(c2)OCO3)cc1 [Paroxetine]
Fractional motility ([1]; D1, Female adult worms): 0.47 | Fractional motility ([1]; D1, Male adult worms): 1.07 | Fractional motility ([1]; D5, Female adult worms): -0.42 | Fractional motility ([1]; D5, Male adult worms): -0.49 | viability at 10 µM [7]: 90% | activity at 1 µM ([4]; 120 h, Selleckchem customized library secondary screen, 24h, D5, 1 µM): 256% | Fractional motility ([4]; Selleckchem customized library secondary screen, 24h, D1, 10 µM): 55.45 | Fractional motility ([4]; Selleckchem customized library secondary screen, 24h, D5, 10 µM): 1.54 | Phenotype [6, 24]: granulated | EC50 ([8]; female worms): 11.9 µM | EC50 ([8]; male worms): 2.7 µM

SMILES: CC(C)C[C@H](NC(=O)[C@H](Cc1ccccc1)NC(=O)c1cnccn1)B(O)O [bortezomib]
reduction of worm motility [9]: > 85% | motility reduction [10]: > 90% | reduction of proteasome activity [11]: > 75%

motility phenotype in words [1]: strongly impaired movement | motility in extended assay with reduced incubation times, in words ([4]; three-day old schistosomulae, incubation 1 h, 3 h, 6 h): significant and sustained hypomotility
SMILES: COC(=O)C1=C(C)NC(C)=C(C(=O)OCCN2CCN(C(c3ccccc3)c3ccccc3)CC2)C1c1cccc([N+](=O)[O-])c1 (stereo not drawn) [Manidipine]
Fractional motility ([1]; D1, Female adult worms): 0.19 | Fractional motility ([1]; D1, Male adult worms): -0.20 | Fractional motility ([1]; D5, Female adult worms): -0.91 | Fractional motility ([1]; D5, Male adult worms): -0.98 | viability at 10 µM [7]: 97% | activity at 1 µM [4, 25]: -59% | activity at 1 µM [4, 21]: -79% | Fractional motility [4, 16]: -0.94 | Fractional motility [4, 17]: -0.59 | Fractional motility [4, 18]: -0.33 | Fractional motility [4, 19]: -0.75 | Fractional motility [4, 20]: -0.74 | hypomotility ([4]; schistosomulae, all tested concentrations until five days after drug washout): ≥ 59% | Fractional motility [4, 22]: -0.78 | Fractional motility [4, 23]: -0.85 | activity on schistosomulae in words [12]: schistosomulicidal | effect on viability of schistosomulae in words ([6]; 24 h incubation, five days): no larval mortality was observed | Phenotype [6, 24]: abnormal morphology, big, granulated

SMILES: NCCc1c[nH]cn1 [histamine]
EC50 [13]: 12.5 ± 1.5 µM

SMILES: CC(C)C[C@@H](C=O)NC(=O)[C@H](CC(C)C)NC(=O)[C@H](CC(C)C)NC(=O)OCc1ccccc1 [MG-132] (Cbz-Leu-Leu-Leu-aldehyde)
fewer parasites migrated to the lung compared to control animals [14]: 65%

SMILES: CN(C)CCCN1c2ccccc2Sc2ccc(Cl)cc21 [Chlorpromazine]
peak motility relative to control schistosomulae [15]: exceeding 50 fold | Fractional motility ([1]; D1, Female adult worms): 0.57 | Fractional motility ([1]; D1, Male adult worms): 2.38 | Fractional motility ([1]; D5, Female adult worms): -0.45 | Fractional motility ([1]; D5, Male adult worms): 0.24 | viability at 10 µM [7]: 96% | hypermotility compared to control schistosomulae ([4]; 10 μM): > 10 fold | activity at 1 µM [4, 25]: 95% | activity at 1 µM [4, 21]: 785% | Fractional motility [4, 22]: 13.78 | Fractional motility [4, 23]: 3.15 | Phenotype [6, 24]: elongated

SMILES: CC(C)C[C@H](NC(=O)[C@H](CCc1ccccc1)NC(=O)CN1CCOCC1)C(=O)N[C@@H](Cc1ccccc1)C(=O)N[C@@H](CC(C)C)C(=O)[C@@]1(C)CO1 [carfilzomib]
reduction of worm motility [9]: > 85% | motility reduction [10]: > 90% | reduction of proteasome activity [11]: > 75%
